Assay results as given in patent US9938269B2, “Inhibitor compounds of phosphodiesterase type 10A” (ABBVIE INC., priority 2011, dated 2018).
pIC50: −log10 of the molar value. Counter-ions that a name gives are not always drawn.

Molecular target: T1, PDE10A (human) (Homo sapiens, UniProt Q9Y233)
T1 construct: purchased BPS Bioscience
Assay: Measurement of PDE activity (HTRF cAMP kit), human PDE10A
Format: biochemical
Settings: PDE enzymatic reaction, substrate 20 nM for PDE10, 60 minutes at 29 C
Experimental: The recombinant PDE proteins are used in in vitro enzymatic reaction for measurement of PDE activity. These recombinant proteins, including PDE10A (human, rat and mouse PDE10) and isoforms of PDEs 1, 3, 4, and 5, were purchased from commercial vendor BPS Bioscience. The enzymatic activity of PDEs was determined by cAMP measurement kit from CisBio (IBA) using HTRF technology.
The PDE enzymatic reaction was carried out in assay buffer (20 mM Tris-HCl pH7.5, 10 mM MgCl2, 0.1% bovine serum albumin) containing enzyme and substrate. The PDE enzymes concentration ranged from 10 pM-250 pM, depending on each enzyme's specific activity. The substrate cyclic nucleotide (cAMP or cGMP) concentration used in the assay was 20 nM for PDE10, and 100 nM for other PDEs. The inhibitory effect of compound was determined by incubating various concentration of inhibitor in the enzymatic assay. Typically, compound was serial diluted in DMSO then further diluted in assay buffer. Next, the compound at varying concentration was mixed with PDE enzyme. The reaction was initiated by addition of cyclic nucleotide substrate, and incubated for 60 minutes at 29 C. The reaction was stopped by addition of lysis buffer from assay kit. The cAMP-d2 and anti-cAMP cryptate in the lysis buffer detected the level of cAMP left from the PDE hydrolysis reaction. The PDE activity is reversely correlated with the amount of cAMP left in the reaction and can be converted to the percent activity of an uninhibited control (100%). Thus, IC50 value of inhibitor can be obtained by plotting inhibitor concentration against PDE activity at that concentration.

T1 sequence (Q9Y233 whole entry): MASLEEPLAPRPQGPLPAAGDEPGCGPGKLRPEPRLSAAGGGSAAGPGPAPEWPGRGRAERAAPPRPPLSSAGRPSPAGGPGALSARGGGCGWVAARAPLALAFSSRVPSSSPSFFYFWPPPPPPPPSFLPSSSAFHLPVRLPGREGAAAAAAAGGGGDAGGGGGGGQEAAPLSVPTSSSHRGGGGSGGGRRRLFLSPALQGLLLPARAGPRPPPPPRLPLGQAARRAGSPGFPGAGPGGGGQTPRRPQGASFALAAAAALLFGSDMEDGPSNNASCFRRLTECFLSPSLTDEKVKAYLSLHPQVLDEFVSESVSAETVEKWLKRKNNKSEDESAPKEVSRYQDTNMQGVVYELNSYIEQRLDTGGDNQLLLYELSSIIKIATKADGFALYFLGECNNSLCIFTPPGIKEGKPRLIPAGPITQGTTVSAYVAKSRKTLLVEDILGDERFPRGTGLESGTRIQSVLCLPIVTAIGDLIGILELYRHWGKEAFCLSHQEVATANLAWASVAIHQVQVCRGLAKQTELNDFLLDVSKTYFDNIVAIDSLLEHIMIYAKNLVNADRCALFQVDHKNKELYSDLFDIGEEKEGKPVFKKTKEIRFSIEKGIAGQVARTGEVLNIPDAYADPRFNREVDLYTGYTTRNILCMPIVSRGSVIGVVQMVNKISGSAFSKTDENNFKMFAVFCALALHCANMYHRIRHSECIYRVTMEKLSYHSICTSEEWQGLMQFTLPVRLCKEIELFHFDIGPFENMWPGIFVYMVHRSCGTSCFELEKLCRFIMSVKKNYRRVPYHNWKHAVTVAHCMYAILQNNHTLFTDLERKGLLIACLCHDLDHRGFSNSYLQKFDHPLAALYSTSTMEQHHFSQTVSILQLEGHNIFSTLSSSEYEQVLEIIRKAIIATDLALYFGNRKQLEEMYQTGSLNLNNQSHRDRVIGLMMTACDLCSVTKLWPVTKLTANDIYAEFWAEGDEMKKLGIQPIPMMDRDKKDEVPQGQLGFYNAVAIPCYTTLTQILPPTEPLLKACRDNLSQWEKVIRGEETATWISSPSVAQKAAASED

Row | Structure (SMILES) | pIC50
1 | O=C1c2c(cccc2-c2ccc3cn[nH]c3c2)CN1CCc1ccc2ccccc2n1 [Example 97, 7-(1H-Indazol-6-yl)-2-(2-quinolin-2-yl-ethyl)-2,3-dihydro-isoindol-1-one] | > 7.00
2 | CN1CCC(N2CCN(c3cccc4c3C(=O)N(CCc3ccc5ccccc5n3)C4)CC2)CC1 [Example 105, 7-[4-(1-Methyl-piperidin-4-yl)-piperazin-1-yl]-2-(2-quinolin-2-yl-ethyl)-2,3-dihydro-isoindol-1-one] | 6.30 to 6.70
3 | O=C1c2c(cccc2N2CCOCC2)CN1CCc1cc(Cl)c2ccccc2n1 [Example 117, 2-[2-(4-Chloro-quinolin-2-yl)-ethyl]-7-morpholin-4-yl-2,3-dihydro-isoindol-1-one trifluoroacetate] | 6.70 to 7.00
4 | O=C1c2c(cccc2NCc2ccncc2)CN1CCc1ccc2ccccc2n1 [Example 125, 7-[(Pyridin-4-ylmethyl)-amino]-2-(2-quinolin-2-yl-ethyl)-2,3-dihydro-isoindol-1-one] | 6.30 to 6.70
5 | O=C1c2c(cccc2NCc2cccnc2)CN1CCc1ccc2ccccc2n1 [Example 126, 7-[(Pyridin-3-ylmethyl)-amino]-2-(2-quinolin-2-yl-ethyl)-2,3-dihydro-isoindol-1-one] | 6.30 to 6.70
6 | O=C1c2c(cccc2OCc2cccnc2)CN1CCc1ccc2ccccc2n1 [Example 127, 7-(Pyridin-3-ylmethoxy)-2-(2-quinolin-2-yl-ethyl)-2,3-dihydro-isoindol-1-one] | 6.70 to 7.00
7 | O=C1c2cccc(N3CCNCC3)c2CN1CCc1ccc2ccccc2n1 [Example 141, 4-piperazin-1-yl-2-(2-quinolin-2-yl-ethyl)-2,3-dihydro-isoindol-1-one] | 6.30 to 6.70
8 | O=C1c2c(cccc2N2CCC(F)(F)CC2)CN1CCc1ccc2ccccc2n1 [Example 143, 7-(4,4-Difluoro-piperidin-1-yl)-2-(2-quinolin-2-yl-ethyl)-2,3-dihydro-isoindol-1-one] | > 7.00
9 | O=C1c2c(cccc2N2CCSCC2)CN1CCc1ccc2ccccc2n1 [Example 150, 2-(2-Quinolin-2-yl-ethyl)-7-thiomorpholin-4-yl-2,3-dihydro-isoindol-1-one] | > 7.00
10 | COc1cnccc1-c1cccc2c1C(=O)N(CCc1ccc3ccccc3n1)C2 [Example 169, 7-(3-Methoxy-pyridin-4-yl)-2-(2-quinolin-2-yl-ethyl)-2,3-dihydro-isoindol-1-one trifluoroacetate] | 6.70 to 7.00
11 | O=C1c2c(cccc2-c2ccncc2Cl)CN1CCc1ccc2ccccc2n1 [Example 170, 7-(3-Chloro-pyridin-4-yl)-2-(2-quinolin-2-yl-ethyl)-2,3-dihydro-isoindol-1-one trifluoroacetate] | > 7.00
12 | O=C1c2c(cccc2-c2ccnc(Cl)c2)CN1CCc1ccc2ccccc2n1 [Example 171, 7-(2-Chloro-pyridin-4-yl)-2-(2-quinolin-2-yl-ethyl)-2,3-dihydro-isoindol-1-one trifluoroacetate] | 6.70 to 7.00
13 | O=C1c2c(cccc2-c2ccncc2F)CN1CCc1ccc2ccccc2n1 [Example 173, 7-(3-Fluoro-pyridin-4-yl)-2-(2-quinolin-2-yl-ethyl)-2,3-dihydro-isoindol-1-one] | > 7.00
14 | O=C1c2cccc(-c3ccncc3)c2CN1CCc1ccc2ccccc2n1 [Example 181, 4-Pyridin-4-yl-2-(2-quinolin-2-yl-ethyl)-2,3-dihydro-isoindol-1-one] | > 7.00
15 | COc1cc(-c2cccc3c2C(=O)N(CCc2ccc4ccccc4n2)C3)ccn1 [Example 182, 7-(2-Methoxy-pyridin-4-yl)-2-(2-quinolin-2-yl-ethyl)-2,3-dihydro-isoindol-1-one trifluoroacetate] | 6.30 to 6.70
16 | COc1ccc(-c2ccc(OC)c3c2C(=O)N(CCc2ccc4ccccc4n2)C3)cc1 [Example 186, 4-Methoxy-7-(4-methoxy-phenyl)-2-(2-quinolin-2-yl-ethyl)-2,3-dihydro-isoindol-1-one] | 6.70 to 7.00
17 | COc1ccc(-c2ccc(F)cc2)c2c1CN(CCc1ccc3ccccc3n1)C2=O [Example 187, 7-(4-Fluoro-phenyl)-4-methoxy-2-(2-quinolin-2-yl-ethyl)-2,3-dihydro-isoindol-1-one] | > 7.00
18 | O=C1c2cccc(-c3cccnc3)c2CN1CCc1ccc2ccccc2n1 [Example 201, 4-Pyridin-3-yl-2-(2-quinolin-2-yl-ethyl)-2,3-dihydro-isoindol-1-one] | > 7.00
19 | COc1ccc(-c2cccc3c2CN(CCc2ccc4ccccc4n2)C3=O)cc1 [Example 203, 4-(4-Methoxy-phenyl)-2-(2-quinolin-2-yl-ethyl)-2,3-dihydro-isoindol-1-one trifluoroacetate] | > 7.00
20 | COCCCOc1ccc(-c2ccncc2)c2c1CN(CCc1ccc3ccccc3n1)C2=O [Example 204, 4-(3-Methoxy-propoxy)-7-pyridin-4-yl-2-(2-quinolin-2-yl-ethyl)-2,3-dihydro-isoindol-1-one] | > 7.00
21 | CC(C)Oc1ccc(-c2ccncc2)c2c1CN(CCc1ccc3ccccc3n1)C2=O [Example 205, 4-Isopropoxy-7-pyridin-4-yl-2-(2-quinolin-2-yl-ethyl)-2,3-dihydro-isoindol-1-one] | > 7.00
22 | O=C1c2cccc(-c3cncnc3)c2CN1CCc1ccc2ccccc2n1 [Example 208, 4-Pyrimidin-5-yl-2-(2-quinolin-2-yl-ethyl)-2,3-dihydro-isoindol-1-one] | > 7.00
23 | Cn1c(CCN2Cc3cccc(-c4ccc(F)cc4)c3C2=O)nc2ccccc21 [Example 211, 7-(4-Fluoro-phenyl)-2-[2-(1-methyl-1H-benzoimidazol-2-yl)-ethyl]-2,3-dihydro-isoindol-1-one trifluoroacetate] | 6.30 to 6.70
24 | O=C1c2cccc(-c3ccc(F)cc3)c2CN1CCc1ccc2ccccc2n1 [Example 212, 4-(4-Fluoro-phenyl)-2-(2-quinolin-2-yl-ethyl)-2,3-dihydro-isoindol-1-one trifluoroacetate] | 6.30 to 6.70
25 | Cn1c(CCN2Cc3cccc(-c4ccncc4)c3C2=O)nc2cc(F)ccc21 [Example 221, 2-[2-(5-Fluoro-1-methyl-1H-benzoimidazol-2-yl)-ethyl]-7-pyridin-4-yl-2,3-dihydro-isoindol-1-one trifluoroacetate] | > 7.00
26 | CCn1c(CCN2Cc3cccc(-c4ccncc4)c3C2=O)nc2ccccc21 [Example 222, 2-[2-(1-Ethyl-1H-benzoimidazol-2-yl)-ethyl]-7-pyridin-4-yl-2,3-dihydro-isoindol-1-one trifluoroacetate] | > 7.00
27 | O=C1c2cccc(-c3cn[nH]c3)c2CN1CCc1ccc2ccccc2n1 [Example 225, 4-(1H-Pyrazol-4-yl)-2-(2-quinolin-2-yl-ethyl)-2,3-dihydro-isoindol-1-one] | > 7.00
28 | O=C1c2c(cccc2-c2ccc3cn[nH]c3c2)CN1CCc1cn2ccccc2n1 [Example 243, 2-(2-Imidazo[1,2-a]pyridin-2-yl-ethyl)-7-(1H-indazol-6-yl)-2,3-dihydro-isoindol-1-one] | > 7.00
29 | O=C1c2cccc(OCc3ccncc3)c2C(=O)N1CCc1ccc2ccccc2n1 [Example 247, 4-(Pyridin-4-ylmethoxy)-2-(2-quinolin-2-yl-ethyl)-isoindole-1,3-dione] | > 7.00
30 | O=C1c2c(N3CCC(F)(F)CC3)ccnc2CN1CCc1ccc2ccccc2n1 [Example 258, 4-(4,4-Difluoro-piperidin-1-yl)-6-(2-quinolin-2-yl-ethyl)-6,7-dihydro-pyrrolo[3,4-b]pyridin-5-one] | > 7.00
